The record followed here is patent US9815796B2 (Merck Sharp & Dohme Corp., priority 2013, dated 2017).

As a reminder, the Ki is a measure of affinity in units of concentration, obtained from inhibition or displacement.

For one assay, the target named is human PDE2A1 (Homo sapiens (Human), UniProt O00408). Put plainly: IMAP FP PDE selectivity panel, human PDE2A1. The assay is classed as biochemical. An outline of the steps:
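GST-tagged human PDE2A1 expressed in insect cells, run at room temperature for 60 min with 50 nM FAM-cAMP containing 1000 nM cGMP, pH 7.2 Tris/MgCl2 buffer. IMAP fluorescence polarization read after binding step.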

For a further assay, the target named is Rhesus PDE2A3 (Macaca mulatta, UniProt B3VTJ2). As to the kind of experiment: PDE2 fluorescence polarization (IMAP FP) inhibition assay, rhesus enzyme. The format is biochemical, rhesus macaque. An outline of the steps: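 Rhesus PDE2A3 came from lysate of transiently transfected AD293 cells, diluted to give 20% substrate conversion. Substrate was 50 nM FAM-cAMP with 1 uM cGMP activator in Tris pH 7.2/MgCl2 buffer, run 60 min at room temperature over 10-point 3-fold dilutions in 1% DMSO. Read-out was IMAP fluorescence polarization (mP) after ≥1 h binding.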
On the technique in general: Fluorescence polarisation rises when a labelled molecule tumbles more slowly, as on binding a larger partner.

Where [1] appears, read: Human PDE2, Lab B, read-out: Human PDE2 Ki (nM) - Lab B.
Where [2] appears, read: Rhesus PDE2, Lab A, read-out: Rhesus PDE2 Ki (nM) - Lab A.
[3] abbreviates: Rhesus PDE2, Lab B, read-out: Rhesus PDE2 Ki (nM) - Lab B.
[4] abbreviates: Human PDE2, Lab A, read-out: Human PDE2 Ki (nM) - Lab A.

The structures appear in SMILES notation. Read-outs that look alike come from different tables or passages of the source.

Chain of Rhesus PDE2A3 (B3VTJ2 1-941): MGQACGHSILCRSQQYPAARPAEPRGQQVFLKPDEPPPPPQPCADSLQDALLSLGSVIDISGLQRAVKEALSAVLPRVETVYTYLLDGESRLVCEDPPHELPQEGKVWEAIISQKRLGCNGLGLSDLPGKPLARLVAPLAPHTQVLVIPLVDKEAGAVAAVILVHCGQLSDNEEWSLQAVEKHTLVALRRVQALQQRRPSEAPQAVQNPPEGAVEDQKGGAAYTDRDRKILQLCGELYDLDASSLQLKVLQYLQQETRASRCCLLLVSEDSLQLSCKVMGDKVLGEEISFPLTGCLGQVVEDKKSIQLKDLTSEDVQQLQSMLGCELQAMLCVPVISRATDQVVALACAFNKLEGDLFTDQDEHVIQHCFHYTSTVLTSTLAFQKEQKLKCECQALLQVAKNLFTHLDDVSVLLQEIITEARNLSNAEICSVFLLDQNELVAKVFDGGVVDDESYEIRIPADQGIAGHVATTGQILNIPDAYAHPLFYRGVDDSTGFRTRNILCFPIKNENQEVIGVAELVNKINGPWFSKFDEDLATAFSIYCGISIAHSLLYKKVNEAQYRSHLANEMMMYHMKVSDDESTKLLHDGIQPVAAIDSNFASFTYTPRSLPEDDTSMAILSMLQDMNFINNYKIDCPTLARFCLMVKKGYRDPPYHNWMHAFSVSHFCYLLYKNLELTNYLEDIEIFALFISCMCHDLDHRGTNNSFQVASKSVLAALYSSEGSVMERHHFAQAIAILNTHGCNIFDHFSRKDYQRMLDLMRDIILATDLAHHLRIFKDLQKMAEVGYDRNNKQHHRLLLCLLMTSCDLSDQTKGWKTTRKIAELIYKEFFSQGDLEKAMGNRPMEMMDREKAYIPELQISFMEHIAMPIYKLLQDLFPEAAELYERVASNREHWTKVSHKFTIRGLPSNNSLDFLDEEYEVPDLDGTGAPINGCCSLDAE
Chain of human PDE2A1 (O00408 other isoform, or with tags, fused parts or gaps): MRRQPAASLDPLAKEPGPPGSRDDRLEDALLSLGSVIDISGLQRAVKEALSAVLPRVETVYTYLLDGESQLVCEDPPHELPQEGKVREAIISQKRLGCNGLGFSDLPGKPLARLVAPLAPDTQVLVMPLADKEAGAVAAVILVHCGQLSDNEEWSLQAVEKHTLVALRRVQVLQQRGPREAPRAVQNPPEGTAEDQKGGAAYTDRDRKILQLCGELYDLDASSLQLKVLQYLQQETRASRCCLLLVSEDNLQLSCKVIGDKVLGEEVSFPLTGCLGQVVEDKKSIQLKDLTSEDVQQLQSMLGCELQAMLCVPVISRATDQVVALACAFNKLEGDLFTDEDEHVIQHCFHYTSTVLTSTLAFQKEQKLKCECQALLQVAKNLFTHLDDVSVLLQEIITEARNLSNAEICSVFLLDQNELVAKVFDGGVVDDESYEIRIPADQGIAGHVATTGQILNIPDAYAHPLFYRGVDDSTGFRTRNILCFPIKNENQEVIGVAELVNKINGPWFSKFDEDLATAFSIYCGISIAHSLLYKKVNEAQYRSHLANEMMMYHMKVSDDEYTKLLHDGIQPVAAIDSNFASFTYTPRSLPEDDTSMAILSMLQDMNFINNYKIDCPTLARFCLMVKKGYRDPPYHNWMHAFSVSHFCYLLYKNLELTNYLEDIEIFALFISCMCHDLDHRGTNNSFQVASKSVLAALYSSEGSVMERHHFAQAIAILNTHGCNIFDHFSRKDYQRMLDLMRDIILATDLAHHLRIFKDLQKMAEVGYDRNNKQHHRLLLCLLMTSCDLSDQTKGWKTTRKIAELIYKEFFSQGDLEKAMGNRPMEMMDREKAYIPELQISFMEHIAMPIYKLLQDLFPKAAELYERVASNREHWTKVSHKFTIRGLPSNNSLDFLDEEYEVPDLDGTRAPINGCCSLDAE

Take `CC(C)[C@@H](NC(=O)c1cc(=O)[nH]c(-c2ncccn2)n1)c1ccc(C(F)(F)F)c(F)c1` [Example 248, N-{(1R)-1-[3-fluoro-4-(trifluoromethyl)phenyl]-2-methylpropyl}-6-oxo-1,6-dihydro-2,2′-bipyrimidine-4-carboxamide]: the figures for the Ki at human PDE2A1 (setting [1]), on Rhesus PDE2A3 (setting [2]) and at Rhesus PDE2A3 (setting [3]) were 3.5 nM, 2 nM and 3.4 nM, respectively.
As to `Cc1nc(C(=O)N[C@@H](c2ccc(C(F)(F)F)cc2)C2(C)CC2)cc(=O)[nH]1` [Example 612, 2-methyl-N-{(R)-(1-methylcyclopropyl)[4-(trifluoromethyl)phenyl]methyl}-6-oxo-1,6-dihydropyrimidine-4-carboxamide], the Ki at human PDE2A1 (setting [1]) and at Rhesus PDE2A3 (setting [3]) was 11 nM in each case.
For `COc1ccc(Cc2nc(C(=O)N[C@@H](c3ccc(OC(F)(F)F)c(F)c3)C(C)C)cc(=O)[nH]2)cc1` [Example 473, N-{(1R)-1-[3-fluoro-4-(trifluoromethoxy)phenyl]-2-methylpropyl}-2-(4-methoxybenzyl)-6-oxo-1,6-dihydropyrimidine-4-carboxamide], the Ki was determined as 0.86 nM at human PDE2A1 (setting [1]) and 1.1 nM on Rhesus PDE2A3 (setting [3]).
Turning to `C[C@@H](NC(=O)c1cc(=O)[nH]c(C2CC2)n1)c1ccc(SC(F)(F)F)cc1` [Example 15, (R)-2-cyclopropyl-6-oxo-N-(1-(4-((trifluoromethyl)thio)phenyl)ethyl)-1,6-dihydro pyrimidine-4-carboxamide], the Ki on human PDE2A1 (setting [4]) is 3.5 nM; at Rhesus PDE2A3 (setting [2]), 4.4 nM.
Regarding `O=C(NC1(c2ccc(SC(F)(F)F)cc2)CC1)c1cc(=O)[nH]c(-c2ccccc2)n1` [Example 159, 6-oxo-2-phenyl-N-(1-{4-[(trifluoromethyl)sulfanyl]phenyl}cyclopropyl)-1,6-dihydropyrimidine-4-carboxamide], the Ki was 4.9 nM on human PDE2A1 (setting [4]) and 7.6 nM at Rhesus PDE2A3 (setting [2]).
Regarding `Cc1nc(C(=O)N[C@H](C)c2ccc(C(F)(F)F)c(C)c2)cc(=O)[nH]1` [Example 46, 2-methyl-N-{(1R)-1-[3-methyl-4-(trifluoromethyl)phenyl]ethyl}-6-oxo-1,6-dihydropyrimidine-4-carboxamide], the values for the Ki on human PDE2A1 (setting [4]) and on Rhesus PDE2A3 (setting [2]) were 72 nM and 65 nM, respectively.
Consider `CC[C@@H](NC(=O)c1cc(=O)[nH]c(COC)n1)c1ccc(SC(F)(F)F)cc1` [Example 121, 2-(methoxymethyl)-6-oxo-N-[(1R)-1-{4-[(trifluoromethyl)sulfanyl]phenyl}propyl]-1,6-dihydropyrimidine-4-carboxamide], for which the Ki is around 6.2 nM at human PDE2A1 (setting [4]), 25 nM on Rhesus PDE2A3 (setting [2]) and 29 nM at Rhesus PDE2A3 (setting [3]).
Consider `CCc1nc(C(=O)NC2(c3ccc(OC(F)(F)F)c(F)c3)CC2)cc(=O)[nH]1` [Example 602], for which the Ki amounted to 4.2 nM at human PDE2A1 (setting [1]) and 5.2 nM at Rhesus PDE2A3 (setting [3]).
For `C[C@@H](NC(=O)c1cc(=O)[nH]c(-c2ncccn2)n1)c1ccc(C2CC2)cc1` [Example 250, N-[(1R)-1-(4-cyclopropylphenyl)ethyl]-6-oxo-1,6-dihydro-2,2′-bipyrimidine-4-carboxamide], the values for the Ki at human PDE2A1 (setting [1]), on Rhesus PDE2A3 (setting [2]) and on Rhesus PDE2A3 (setting [3]) were 6.3 nM, 5.3 nM and 5.4 nM, respectively.
`CC(C)[C@@H](NC(=O)c1cc(=O)[nH]c(C2CC2)n1)c1ccc(C(F)(F)F)cc1` [Example 193, 2-cyclopropyl-N-{(1R)-2-methyl-1-[4-(trifluoromethyl)phenyl]propyl}-6-oxo-1,6-dihydropyrimidine-4-carboxamide]: the Ki on human PDE2A1 (setting [4]) turned out to be 1.3 nM; at Rhesus PDE2A3 (setting [2]) it was 3.9 nM.
Consider `Cc1nc(C(=O)N[C@H](C)c2ccc3ccccc3c2)cc(=O)[nH]1` [Example 16, 2-methyl-N-[(1R)-1-naphthalen-2-ylethyl]-6-oxo-1,6-dihydropyrimidine-4-carboxamide], for which the values for the Ki at human PDE2A1 (setting [4]) and at Rhesus PDE2A3 (setting [2]) were 67 nM and 74 nM, respectively.
For `COc1ccc(Cc2nc(C(=O)N[C@@H](c3ccc(SC(F)(F)F)cc3)C3CC3)cc(=O)[nH]2)cc1F` [Example 523, N-[(R)-cyclopropyl{4-[(trifluoromethyl)sulfanyl]phenyl}methyl]-2-(3-fluoro-4-methoxybenzyl)-6-oxo-1,6-dihydropyrimidine-4-carboxamide], the Ki on human PDE2A1 (setting [1]) stood at 2.1 nM; at Rhesus PDE2A3 (setting [3]), 2.8 nM.
In the case of `N#CC(NC(=O)c1cc(=O)[nH]c(-c2ccccc2)n1)c1ccc(C(F)(F)F)cc1` (centres unmarked) [Example 413, N-{cyano[4-(trifluoromethyl)phenyl]methyl}-6-oxo-2-phenyl-1,6-dihydropyrimidine-4-carboxamide], the Ki at human PDE2A1 (setting [1]) came out at 126 nM; at Rhesus PDE2A3 (setting [3]), 105 nM.
In the case of `Cc1nc(C(=O)N[C@H](C)c2ccc(OC(F)(F)F)cc2)cc(=O)[nH]1` [Example 9, 2-methyl-6-oxo-N-{(1R)-1-[4-(trifluoromethoxy)phenyl]ethyl}-1,6-dihydropyrimidine-4-carboxamide], the Ki at human PDE2A1 (setting [4]) was found to be 16 nM; on Rhesus PDE2A3 (setting [2]) it was 21 nM.
`Cc1nc(C(=O)N[C@@H](c2ccc(OC(F)F)cc2)C(C)(C)C)cc(=O)[nH]1` [Example 62, (R)-N-(1-(4-(difluoromethoxy)phenyl)-2,2-dimethylpropyl)-2-methyl-6-oxo-1,6-dihydropyrimidine-4-carboxamide]: the Ki at human PDE2A1 (setting [1]) stood at 8.3 nM; on Rhesus PDE2A3 (setting [3]), 9.8 nM.
As to `Cc1nc(C(=O)N[C@@H](c2ccc(OC(F)(F)F)c(F)c2)C2CC2)cc(=O)[nH]1` [Example 40, N-{(R)-cyclopropyl[3-fluoro-4-(trifluoromethoxy)phenyl]methyl}-2-methyl-6-oxo-1,6-dihydropyrimidine-4-carboxamide], the values for the Ki at human PDE2A1 (setting [4]) and at Rhesus PDE2A3 (setting [2]) were 9.3 nM and 19 nM, respectively.
For the molecule `O=C(NC1(c2ccc(C(F)(F)F)cc2)CCC1)c1cc(=O)[nH]c(C2CC2)n1` [Example 143, 2-cyclopropyl-6-oxo-N-{1-[4-(trifluoromethyl)phenyl]cyclobutyl}-1,6-dihydropyrimidine-4-carboxamide], the Ki amounted to 11 nM on human PDE2A1 (setting [4]) and 21 nM at Rhesus PDE2A3 (setting [2]).
Take `CC(NC(=O)c1cc(=O)[nH]c(-c2ccccc2)n1)c1ccc(-n2cccn2)cc1` (centres unmarked) [Example 350, 6-oxo-2-phenyl-N-{1-[4-(1H-pyrazol-1-yl)phenyl]ethyl}-1,6-dihydropyrimidine-4-carboxamide]: the Ki on human PDE2A1 (setting [1]) was found to be 39 nM; on Rhesus PDE2A3 (setting [2]), 21 nM.
For the molecule `C[C@@H](NC(=O)c1cc(=O)[nH]c(C2CC2)n1)c1ccc(OC(F)(F)F)cc1F` [Example 297, 2-cyclopropyl-N-{(1R)-1-[2-nuoro-4-(trifluoromethoxy)phenyl]ethyl}-6-oxo-1,6-dihydropyrimidine-4-carboxamide], the Ki on human PDE2A1 (setting [4]) turned out to be 16 nM; on Rhesus PDE2A3 (setting [2]), 30 nM.
Consider `Cc1nc(C(=O)N[C@@H](c2ccc(SC(F)(F)F)cc2)C(C)C)cc(=O)[nH]1` [Example 30, 2-methyl-N-[(1R)-2-methyl-1-{4-[(trifluoromethyl)sulfanyl]phenyl}propyl]-6-oxo-1,6-dihydropyrimidine-4-carboxamide], for which the Ki was 2.2 nM on human PDE2A1 (setting [4]) and 3.2 nM at Rhesus PDE2A3 (setting [2]).
On to `CC1(C(NC(=O)c2cc(=O)[nH]c(-c3ccccc3)n2)c2ccc(SC(F)(F)F)c(F)c2)CC1` (single isomer, unassigned) [Example 707, (R)- or (S)-N-((3-fluoro-4-((trifluoromethyl)thio)phenyl)(1-methylcyclopropyl)methyl)-6-oxo-2-phenyl-1,6-dihydropyrimidine-4-carboxamide], for which the Ki was found to be 7.7 nM on human PDE2A1 (setting [1]) and 8.3 nM at Rhesus PDE2A3 (setting [3]).
Take `C[C@@H](NC(=O)c1cc(=O)[nH]c(-c2ccccc2)n1)c1ccc(C(F)(F)F)c(F)c1` [Example 148, N-{(1R)-1-[3-fluoro-4-(trifluoromethyl)phenyl]ethyl}-6-oxo-2-phenyl-1,6-dihydropyrimidine-4-carboxamide]: the Ki on human PDE2A1 (setting [4]) stood at 2.6 nM; at Rhesus PDE2A3 (setting [2]) it was 5.2 nM.
Consider `CCc1nc(C(=O)N[C@@H](C)c2ccc(C(F)(F)F)cc2)cc(=O)[nH]1` [Example 135, 2-ethyl-6-oxo-N-{(1S)-1-[4-(trifluoromethyl)phenyl]ethyl}-1,6-dihydropyrimidine-4-carboxamide], for which the Ki on human PDE2A1 (setting [4]) came to 1140 nM; at Rhesus PDE2A3 (setting [2]), 1650 nM.
The matching figures for `C[C@@H](NC(=O)c1cc(=O)[nH]c(-c2ccccc2)n1)c1ccc(OC(F)(F)F)cc1F` [Example 152]: 13 nM and 16 nM.
For the molecule `COc1cc(OC(F)(F)F)ccc1C(C)NC(=O)c1cc(=O)[nH]c(-c2ccccc2)n1` (centres unmarked) [Example 387, N-{1-[2-methoxy-4-(trifluoromethoxy)phenyl]ethyl}-6-oxo-2-phenyl-1,6-dihydropyrimidine-4-carboxamide], the Ki at human PDE2A1 (setting [1]) was found to be 8.1 nM; on Rhesus PDE2A3 (setting [3]), 9.6 nM.
`C[C@@H](NC(=O)c1cc(=O)[nH]c(Cc2ccccc2)n1)c1ccc(C(F)(F)F)cc1` [Example 133, 2-benzyl-6-oxo-N-{(1R)-1-[4-(trifluoromethyl)phenyl]ethyl}-1,6-dihydropyrimidine-4-carboxamide]: the inhibition constant (Ki) is 20 nM at human PDE2A1 (setting [4]) and 21 nM on Rhesus PDE2A3 (setting [2]).
With `C[C@@H](NC(=O)c1cc(=O)[nH]c(-c2ncccn2)n1)c1ccc(OC(F)(F)F)cc1F` [Example 101, N-{(1R)-1-[2-fluoro-4-(trifluoromethoxy)phenyl]ethyl}-6-oxo-1,6-dihydro-2,2′-bipyrimidine-4-carboxamide], the inhibition constant (Ki) at human PDE2A1 (setting [4]) is around 8.9 nM; on human PDE2A1 (setting [1]), 33 nM; at Rhesus PDE2A3 (setting [2]) it was 28 nM; on Rhesus PDE2A3 (setting [3]), 28 nM.
